Results taken from ChEMBL document CHEMBL5352498, “Aza-Residue Modulation of Cyclic d,l-α-Peptide Nanotube Assembly with Enhanced Anti-Amyloidogenic Activity” (J Med Chem, 2023).
Active and inactive are the calls of the source. The calls are words filed in the database; no cut-off is given here. Where a SMILES comes first, the peptide text is derived from it. [ ]: non-standard residue; d: D form. Nle = CCCC[C@H](N)C(=O)O

How the values were obtained:
[1] = target: Amyloid-beta precursor protein (Homo sapiens) (UniProt P05067); assay: Inhibition of amyloid beta 40 (unknown origin) aggregation assessed as reduction in fibril formation by measuring fluorescence intensity at compound:Abeta40 concentration ratio of 1:5 and measured for 72 hrs by ThT flourescence assay relative to control
Chain of Amyloid-beta precursor protein (Homo sapiens) (P05067 whole entry, the tested form may be a part): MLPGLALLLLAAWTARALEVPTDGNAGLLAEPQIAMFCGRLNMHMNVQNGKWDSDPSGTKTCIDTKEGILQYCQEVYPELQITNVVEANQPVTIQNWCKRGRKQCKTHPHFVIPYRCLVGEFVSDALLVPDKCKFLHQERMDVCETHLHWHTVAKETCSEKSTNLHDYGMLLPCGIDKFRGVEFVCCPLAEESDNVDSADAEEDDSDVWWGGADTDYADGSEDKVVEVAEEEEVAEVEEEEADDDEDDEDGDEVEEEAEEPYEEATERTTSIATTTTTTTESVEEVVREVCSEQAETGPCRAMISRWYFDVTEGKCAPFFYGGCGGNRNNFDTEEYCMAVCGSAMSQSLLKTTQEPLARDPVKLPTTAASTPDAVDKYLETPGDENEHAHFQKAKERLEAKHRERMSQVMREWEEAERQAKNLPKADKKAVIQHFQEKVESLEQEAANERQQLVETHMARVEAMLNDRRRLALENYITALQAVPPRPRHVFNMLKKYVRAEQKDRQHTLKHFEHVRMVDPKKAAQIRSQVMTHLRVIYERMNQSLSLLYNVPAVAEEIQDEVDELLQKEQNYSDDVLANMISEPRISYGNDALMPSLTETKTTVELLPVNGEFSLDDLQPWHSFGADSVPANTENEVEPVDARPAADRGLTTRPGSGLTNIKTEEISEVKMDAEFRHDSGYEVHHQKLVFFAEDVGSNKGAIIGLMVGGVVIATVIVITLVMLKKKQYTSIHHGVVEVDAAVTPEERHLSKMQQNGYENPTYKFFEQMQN

[2] = target: Amyloid-beta precursor protein (Homo sapiens) (UniProt P05067); assay: Inhibition of amyloid beta 42 (unknown origin) aggregation assessed as decrease in fibril formation by measuring fluorescence intensity and measured for 72 hrs by ThT flourescence assay
[3] = target: Amyloid-beta precursor protein (Homo sapiens) (UniProt P05067); assay: Induction of amyloid beta 40 fibrils (unknown origin) disaggregation assessed as decrease in relative fluorescence intensity at 500 uM incubated for 24 hrs ThT flourescence assay relative to control; set-up: scale not given: the % may be the effect or the level left
[4] = target: Amyloid-beta precursor protein (Homo sapiens) (UniProt P05067); assay: Inhibition of amyloid beta 40 (unknown origin) aggregation assessed as assessed as decrease in fibril formation by measuring decrease in fibril-specific OC antibody spots at 150 uM and measured for 48 hrs by Dot-Blot assay
[5] = target: Amyloid-beta precursor protein (Homo sapiens) (UniProt P05067); assay: Inhibition of amyloid beta 40 (unknown origin) aggregation assessed as decrease in […] conformation of protein secondary structure at 50 uM incubated for 24 hrs by Circular dichroism spectroscopy analysis
[6] = target: Amyloid-beta precursor protein (Homo sapiens) (UniProt P05067); assay: Inhibition of amyloid beta 40 (unknown origin) aggregation assessed as reduction in fibril formation by measuring fluorescence intensity at 100 to 500 uM measured for 72 hrs by ThT flourescence assay; details: dose 100-500 µM
[7] = test system: PC-12; assay: Cytotoxicity against rat PC12 cells assessed as reduction in cell viability at 100 uM incubated for 24 hrs by MTT assay; type: toxicity, cell-based; details: pc-12, 24 h
[8] = target: Amyloid-beta precursor protein (Homo sapiens) (UniProt P05067); assay: Inhibition of amyloid beta 40 (unknown origin) aggregation assessed as assessed as decrease in oligomer formation by measuring decrease in oligomer-specific A11 antibody spots at 150 uM and measured for 48 hrs by Dot-Blot assay
[9] = test system: PC-12; assay: Neuroprotective activity against amyloid beta 40-induced cytotoxicity in rat PC12 cells assessed as increase in cell viability at compound:Abeta40 concentration ratio of 1:5 and incubated for 24 hrs by MTT assay relative to control; type: functional
[10] = test system: PC-12; assay: Neuroprotective activity against amyloid beta 40-induced cytotoxicity in rat PC12 cells assessed as increase in cell viability at compound:Abeta40 concentration ratio of 1:1 and incubated for 24 hrs by MTT assay relative to control; type: functional, cell-based
[11] = test system: Caenorhabditis elegans; assay: Neuroprotective activity in transgenic Caenorhabditis elegans GMC101 Alzheimer's disease model expressing human amyloid beta (1 to 42 residues) in body-wall muscle assessed as increase in fraction of unparalyzed worms at 5 uM incubated for 48 hrs (Rvb= 56%); type: functional
[12] = test system: Caenorhabditis elegans; assay: Neuroprotective activity against wild type Caenorhabditis elegans CL2122 assessed as motility changes by measuring worms bending frequency at 50 uM incubated for 36 hrs at 16 degreeC and 36 hrs at 23 degreeC; type: functional, organism-based; details: time 72.0 hrs
[13] = test system: Caenorhabditis elegans; assay: Neuroprotective activity in transgenic Caenorhabditis elegans GMC101 Alzheimer's disease model overexpressing human amyloid beta (1 to 42 residues) in body-wall muscle assessed as reduction in amyloid beta fibrils incubated for 48 hrs by Western blot analysis; type: functional, organism-based
[14] = test system: Caenorhabditis elegans; assay: Neuroprotective activity in transgenic Caenorhabditis elegans GMC101 Alzheimer's disease model overexpressing human amyloid beta (1 to 42 residues) in body-wall muscle assessed as reduction in fibril-specific […] antibody spots incubated for 48 hrs by immunochemical dot-blot analysis; type: functional, organism-based
[15] = test system: Caenorhabditis elegans; assay: Neuroprotective activity against transgenic Caenorhabditis elegans CL2355 Alzheimer's disease model expressing human amyloid beta (1 to 42 residues) in neuron assessed as increase in motility at 5 to 50 uM incubated for 36 hrs at 16 degreeC and 36 hrs at 23 degreeC; type: functional, organism-based; details: dose 5-50 µM, time 72.0 hrs
[16] = target: Amyloid-beta precursor protein (Homo sapiens) (UniProt P05067); assay: Inhibition of amyloid beta 40 (unknown origin) self aggregation assessed as change in fibril morphology at 500 uM incubated for 72 hrs by TEM analysis
[17] = test system: Caenorhabditis elegans; assay: Neuroprotective activity in transgenic Caenorhabditis elegans GMC101 Alzheimer's disease model overexpressing human amyloid beta (1 to 42 residues) in body-wall muscle assessed as delay in amyloid beta 42-induced paralysis at 5 to 50 uM incubated for 48 hrs; type: functional, organism-based; details: dose 5-50 µM
[18] = test system: Caenorhabditis elegans; assay: (§1) Neuroprotective activity against transgenic Caenorhabditis elegans CL2355 Alzheimer's disease model expressing human amyloid beta (1 to 42 residues) in neuron assessed as increase in motility by measuring bending frequency at 5 uM incubated for 36 hrs at 16 degreeC and 36 hrs at 23 degreeC (reference value: 74); type: functional; details: time 72 hrs
[19] = test system: Caenorhabditis elegans; assay: Neuroprotective activity against transgenic Caenorhabditis elegans CL2355 Alzheimer's disease model expressing human amyloid beta (1 to 42 residues) in neuron assessed as neutralization of damaging effect of amyloid beta aggregation by measuring increase in chemotaxis index at 50 uM incubated for 36 hrs at 16 degreeC and 36 hrs at 23 degreeC by Chemotaxis Assay; type: functional, organism-based; details: time 72.0 hrs
[20] = test system: Caenorhabditis elegans; assay: Neuroprotective activity in transgenic Caenorhabditis elegans GMC101 Alzheimer's disease model overexpressing human amyloid beta (1 to 42 residues) in body-wall muscle assessed as reduction in amyloid beta oligomers incubated for 48 hrs by Western blot analysis; type: functional, organism-based
[21] = test system: Caenorhabditis elegans; assay: Neuroprotective activity against wild type Caenorhabditis elegans CL2122 assessed as delay in amyloid beta 42-induced paralysis at 50 uM incubated for 48 hrs; type: functional, organism-based
[22] = test system: Caenorhabditis elegans; assay: Neuroprotective activity in transgenic Caenorhabditis elegans GMC101 Alzheimer's disease model overexpressing human amyloid beta (1 to 42 residues) in body-wall muscle assessed as reduction in oligomeric-specific A11 antibody spots incubated for 48 hrs by immunochemical dot-blot analysis; type: functional, organism-based
[23] = target: Amyloid-beta precursor protein (Homo sapiens) (UniProt P05067); assay: Inhibition of amyloid beta 40 (unknown origin) self aggregation assessed as decrease in fibril formation at 500 uM incubated for 72 hrs by TEM analysis
[24] = target: Amyloid-beta precursor protein (Homo sapiens) (UniProt P05067); assay: Inhibition of amyloid beta 42 (unknown origin) aggregation assessed as reduction in fibril formation by measuring fluorescence intensity at compound:Abeta42 concentration ratio of 1:5 and measured for 72 hrs by ThT flourescence assay relative to control
[25] = target: Amyloid-beta precursor protein (Homo sapiens) (UniProt P05067); assay: Inhibition of amyloid beta 40 (unknown origin) aggregation assessed as reduction in fibril formation by measuring fluorescence intensity at compound:Abeta40 concentration ratio of 1:1 and measured for 72 hrs by ThT flourescence assay relative to control
[26] = test system: Caenorhabditis elegans; assay: Neuroprotective activity against transgenic Caenorhabditis elegans GMC101 Alzheimer's disease model expressing human amyloid beta 42 assessed as increase in fractional of unparalyzed worms at 5 uM (Rvb=51%); type: functional
[27] = test system: Caenorhabditis elegans; assay: Neuroprotective activity against transgenic Caenorhabditis elegans CL2355 Alzheimer's disease model expressing human amyloid beta (1 to 42 residues) in neuron assessed as increase in chemotaxis index at 50 uM incubated for 36 hrs at 16 degreeC and 36 hrs at 23 degreeC by Chemotaxis Assay (0.22; type: functional; details: time 72 hrs
[28] = test system: Caenorhabditis elegans; assay: as §1, with “72)” for “74)”; type: functional; details: time 72 hrs

Row | inhibition [1] | inhibition [2] | Activity [3] [%] | inhibition [4] | inhibition [5] | inhibition [6] | inhibition [8] | inhibition [25] | Structure (SMILES) | Activity [7] | Activity [9] [%] | Activity [10] | further results
1 | Active | inactive | < 50 | inactive | inactive | Active | inactive | – | CCCC[C@@H]1NC(=O)[C@@H](CC(C)C)NC(=O)[C@H](CCCCN)NC(=O)[C@@H](CO)NC(=O)[C@H](Cc2c[nH]cn2)NC(=O)N(Cc2cc3ccccc3[nH]2)NC1=O | Toxic | – | – | –
2 | Active | Active | < 50 | Active | 60% | Active | Active | – | CCCC[C@@H]1NC(=O)[C@@H](CC(C)C)NC(=O)[C@H](CCCCN)NC(=O)[C@@H](CO)NC(=O)N(Cc2c[nH]nn2)NC(=O)[C@@H](Cc2c[nH]c3ccccc23)NC1=O (racemic) | Non-Toxic | >90 | – | –
3 | Active | Active | < 50 | – | 60% | Active | Active | – | CCCC[C@@H]1NC(=O)[C@@H](CC(C)C)NC(=O)[C@H](CCCCN)NC(=O)N(CCO)NC(=O)[C@H](Cc2c[nH]cn2)NC(=O)[C@@H](Cc2c[nH]c3ccccc23)NC1=O (racemic) | Non-Toxic | >90 | Active | Activity [11]: 60%; Activity [12]: inactive; Activity [13]: Active; Activity [14]: Active; Activity [15]: Dose-Dependent Effect; inhibition [16]: Active; Activity [17]: Dose-Dependent Effect; Activity [18]: 79; Activity [19]: Active; Activity [20]: Active; Activity [21]: inactive; Activity [22]: Active
4 | 88% | Active | < 50 | Active | inactive | Active | Active | 93% | CCCCN1NC(=O)[C@@H](CC(C)C)NC(=O)[C@H](CCCCN)NC(=O)[C@@H](CO)NC(=O)[C@H](Cc2c[nH]cn2)NC(=O)[C@@H](Cc2c[nH]c3ccccc23)NC1=O (racemic) | Non-Toxic | >90 | Active | inhibition [23]: Active; Activity [11]: 76%; Activity [12]: inactive; Activity [13]: Active; Activity [14]: Active; Activity [15]: Dose-Dependent Effect; inhibition [24]: 87.6%; Activity [17]: Dose-Dependent Effect; Activity [18]: 79; Activity [19]: Active; Activity [20]: Active; Activity [21]: inactive; Activity [22]: Active
5 | inactive | – | 72 | inactive | Active | Active | inactive | inactive | CCCC[C@@H]1NC(=O)N(CC(C)C)NC(=O)[C@H](CCCCN)NC(=O)[C@@H](CO)NC(=O)[C@H](Cc2c[nH]cn2)NC(=O)[C@@H](Cc2c[nH]c3ccccc23)NC1=O (racemic) | Toxic | – | – | –
6 | inactive | Active | < 50 | – | Active | Active | Active | inactive | CCCC[C@@H]1NC(=O)[C@@H](CC(C)C)NC(=O)N(CCCCN)NC(=O)[C@@H](CO)NC(=O)[C@H](Cc2c[nH]cn2)NC(=O)[C@@H](Cc2c[nH]c3ccccc23)NC1=O (racemic) | Non-Toxic | >90 | Active | inhibition [16]: Active
7 | 89% | – | 33 | – | – | – | – | 50% | CCCC[C@@H]1NC(=O)[C@@H](CC(C)C)NC(=O)[C@H](CCCCN)NC(=O)[C@@H](CO)NC(=O)[C@H](Cc2c[nH]cn2)NC(=O)[C@@H](Cc2c[nH]c3ccccc23)NC1=O (cyclo(K[dL][Nle][dW]H[dS])) | Non-Toxic | 88 | – | Activity [26]: 86%; Activity [27]: 0.32; Activity [28]: 82
